Laboratory results from patent publication US5321030A, “Creatine analogs having antiviral activity” (priority 1991, dated 1994).
In brackets after ≈: the same amount, converted by molar mass. Several values for one entry are separate records, joined by “and”; a condition that tells them apart may be missing. Equal values may be shown once. Read-outs that look alike come from different tables or passages of the source.

What was measured:
[1] = tested on: Varicella-Zoster Virus, strain Oka; assay: microbe, parasite or virus in culture; type: cell-based; design: TI50 (CD50 ÷ ED50): unit not given beside the values
[2] = tested on: Guinea Pig Cytomegalovirus, Strain 22122; assay: CPE reduction assay, guinea pig cytomegalovirus in GPE cells; type: cell-based; design: TI50 (CD50 ÷ ED50): unit not given here; settings: for Average CPE: virus controls 4.0
HCMV, strain AD-169 = assay: Plaque reduction assay, HCMV strain AD-169; type: cell-based, Human Cytomegalovirus; design: TI50 (CD50 ÷ ED50): unit not given here; settings: for EC50: read-out: ED50 (the source's name)
MRC-5 cells = assay: Cytotoxicity in plaque reduction assay, MRC-5 cells; type: cell-based, human; settings: HCMV experiments, 8 days of exposure
Protocol: (§1) Cytotoxicity was determined by examination of cells (located away from plaques) in infected wells which had been treated with drug.

[3] = as above; type: cell-based, human; settings: human, mrc-5 cells, read-out: CD50 (the source's name)
Protocol: as §1

[4] = tested on: Influenza B/Hong Kong/5/72; assay: CPE-reduction assay, Influenza B in MDCK cells; type: cell-based; settings: 62.5 μg/ml-4 mg/ml; only at the highest concentration
Protocol: Cyclocreatine was prepared at a concentration of 100 mg/ml in MEM, without serum, 0.18% NaHCO3, 50 μg/ml gentamicin. Further dilutions (2-fold dilution scheme) were made in MEM without serum.
Cells (0.2 ml/well) were seeded in 96-well flat bottom tissue culture plates, (Corning Glass Works, Corning, N.Y.). The cells were incubated overnight in order to establish cell monolayers. Growth medium was decanted from the 96-well plates and various dilutions of compound were added to wells of the plate (4 wells/dilution; 0.1 ml/well). Medium alone was added to uninfected cell and virus (no drug) control wells (0.1 ml/well). Virus, diluted in test medium (0.1 ml final volume), was added to all compound test wells of the plate (3 wells/dilution) and to 9 virus control wells. Test medium (0.1 ml/well) without virus was added to all toxicity control wells (1 well/dilution for each compound tested) and to 3 uninfected cell control wells.
The plates were incubated at 37° C. until virus control wells (no drug) had CPE readings near 100% CPE. Cells were then examined microscopically for virus CPE and graded on a scale of 0-4, with 0 being no CPE and 4 being 100% CPE. The cells in toxicity control wells were observed microscopically and graded for morphological changes due to cytotoxicity. […]

[5] = Phosphorylation of cyclocreatine in cultured cells
in vitro = settings: guinea pig, gpe cells
[6] = tested on: Influenza A/Port Chalmers/1/73 (H3 N2); assay: CPE-reduction assay, Influenza A in MDCK cells; type: cell-based; settings: 62.5 μg/ml-4 mg/ml
in vivo = type: in vivo
HSV-2 = assay: Cytopathic effect (CPE) assay, HSV-2
[7] = Human alphaherpesvirus 3, CV-1, read-out: % Reduction
[8] = Human alphaherpesvirus 3, MRC5, read-out: % Reduction

NC1=NCCN1CC(=O)O [cyclocreatine, 1-carboxymethyl-2-iminoimidazolidine]
TI50 (CD50 ÷ ED50) ([1]; CV-1 cells, Table 9B): ~ 54 | # Plaques ([1]; CV-1 cells, AM-285 156 μg/ml, virus control 70.25 ± 6.9): 28.5 | # Plaques ([1]; CV-1 cells, AM-285 312.5 μg/ml, virus control 70.25 ± 6.9): 12 | # Plaques ([1]; CV-1 cells, AM-285 625 μg/ml, virus control 70.25 ± 6.9): 3 | # Plaques ([1]; CV-1 cells, AM-285 1250 μg/ml, virus control 70.25 ± 6.9): 1 | # Plaques ([1]; CV-1 cells, AM-285 2500 μg/ml, virus control 70.25 ± 6.9): 0 | # Plaques ([1]; CV-1 cells, AM-285 5000 μg/ml, virus control 70.25 ± 6.9): 0 | # Plaques ([1]; CV-1 cells, AM-285 10000 μg/ml, virus control 70.25 ± 6.9): 0 | inhibition at 156 µg/mL [1, 7]: 59% | inhibition at 312.5 µg/mL [1, 7]: 83% | inhibition at 625 µg/mL [1, 7]: 96% | inhibition at 1250 µg/mL [1, 7]: 98% | inhibition at 2500 µg/mL [1, 7]: 100% | inhibition at 5000 µg/mL [1, 7]: 100% | inhibition at 10000 µg/mL [1, 7]: 100% | EC50 ([1]; Human alphaherpesvirus 3, CV-1, read-out: ED50): < 156 mg/L | EC50 ([1]; Human alphaherpesvirus 3, CV-1, read-out: ED50, approximate value in parentheses): ~107 mg/L (≈ 0.747 mM) | inhibition at 62.5 µg/mL [1, 8]: 0% | inhibition at 125 µg/mL [1, 8]: 0% | inhibition at 260 µg/mL [1, 8]: 36% | inhibition at 500 µg/mL [1, 8]: 42% | inhibition at 1000 µg/mL [1, 8]: 71% | inhibition at 2000 µg/mL [1, 8]: 91% | inhibition at 4000 µg/mL [1, 8]: 100% | EC50 ([1]; Human alphaherpesvirus 3, MRC5, read-out: ED50): 564 mg/L (≈ 3.94 mM) | TI50 (CD50 ÷ ED50) ([1]; MRC-5 cells, Table 9A): > 7.1 | # Plaques ([1]; MRC-5 cells, AM-285 62.5 μg/ml, virus control 32.7 ± 9.3): 26 | # Plaques ([1]; MRC-5 cells, AM-285 125 μg/ml, virus control 32.7 ± 9.3): 26 | # Plaques ([1]; MRC-5 cells, AM-285 260 μg/ml, virus control 32.7 ± 9.3): 21 | # Plaques ([1]; MRC-5 cells, AM-285 500 μg/ml, virus control 32.7 ± 9.3): 19 | # Plaques ([1]; MRC-5 cells, AM-285 1000 μg/ml, virus control 32.7 ± 9.3): 9.5 | # Plaques ([1]; MRC-5 cells, AM-285 2000 μg/ml, virus control 32.7 ± 9.3): 3 | # Plaques ([1]; MRC-5 cells, AM-285 4000 μg/ml, virus control 32.7 ± 9.3): 0 | Average CPE ([2]; AM-285 156.25 μg/ml): 4.0 | Average CPE ([2]; AM-285 312.5 μg/ml): 4.0 | Average CPE ([2]; AM-285 625 μg/ml): 3.5 | Average CPE ([2]; AM-285 1250 μg/ml): 3.3 | Average CPE ([2]; AM-285 2500 μg/ml): 2.5 | Average CPE ([2]; AM-285 5000 μg/ml): 1.7 | Average CPE ([2]; AM-285 10000 μg/ml): 0.0 | EC50 ([2]; Caviid betaherpesvirus 2, GPE cells, Table 3, read-out: ED50 (the source's name)): 3270 mg/L (≈ 22.9 mM) | TI50 (CD50 ÷ ED50) ([2]; GPE cells, Table 3): > 3.0 | effect on CPE ([2]; between 0.625 and 5.0 mg/ml): An inhibitory effect | TI50 (CD50 ÷ ED50) (HCMV, strain AD-169; Hs-68 cells, Table 5): greater than 6.2 | TI50 (CD50 ÷ ED50) (HCMV, strain AD-169; Hs-68 cells, Table 5, listed as AM-285): > 6.2 | # Plaques (HCMV, strain AD-169; Hs-68 cells, AM-285 62.5 μg/ml, virus control 74.2 ± 8.6): 71 | # Plaques (HCMV, strain AD-169; Hs-68 cells, AM-285 125 μg/ml, virus control 74.2 ± 8.6): 65 | # Plaques (HCMV, strain AD-169; Hs-68 cells, AM-285 260 μg/ml, virus control 74.2 ± 8.6): 87 | # Plaques (HCMV, strain AD-169; Hs-68 cells, AM-285 500 μg/ml, virus control 74.2 ± 8.6): 41 | # Plaques (HCMV, strain AD-169; Hs-68 cells, AM-285 1000 μg/ml, virus control 74.2 ± 8.6): 19.5 | # Plaques (HCMV, strain AD-169; Hs-68 cells, AM-285 2000 μg/ml, virus control 74.2 ± 8.6): 1.5 | # Plaques (HCMV, strain AD-169; Hs-68 cells, AM-285 4000 μg/ml, virus control 74.2 ± 8.6): 0 | inhibition at 260 µg/mL (HCMV, strain AD-169; Human betaherpesvirus 5, AD169, Hs68, read-out: % Reduction): 0% | EC50 (HCMV, strain AD-169; Human betaherpesvirus 5, AD169, Hs68, Hs-68 cells, Table 5): 647 mg/L (≈ 4.52 mM) | inhibition at 62.5 µg/mL (HCMV, strain AD-169; Human betaherpesvirus 5, AD169, Hs68, Hs-68 cells, AM-285 62.5 μg/ml): 0% | inhibition at 125 µg/mL (HCMV, strain AD-169; Human betaherpesvirus 5, AD169, Hs68, Hs-68 cells, AM-285 125 μg/ml): 0% | inhibition at 500 µg/mL (HCMV, strain AD-169; Human betaherpesvirus 5, AD169, Hs68, Hs-68 cells, AM-285 500 μg/ml): 45% | inhibition at 1000 µg/mL (HCMV, strain AD-169; Human betaherpesvirus 5, AD169, Hs68, Hs-68 cells, AM-285 1000 μg/ml): 74% | inhibition at 2000 µg/mL (HCMV, strain AD-169; Human betaherpesvirus 5, AD169, Hs68, Hs-68 cells, AM-285 2000 μg/ml): 98% | inhibition at 4000 µg/mL (HCMV, strain AD-169; Human betaherpesvirus 5, AD169, Hs68, Hs-68 cells, AM-285 4000 μg/ml): 100% | EC50 (HCMV, strain AD-169; Human betaherpesvirus 5, AD169, MRC5, MRC-5 cells, Table 4): 610 mg/L (≈ 4.26 mM) | inhibition at 62.5 µg/mL (HCMV, strain AD-169; Human betaherpesvirus 5, AD169, MRC5, MRC-5 cells, AM 285 62.5 μg/ml): 0% | inhibition at 125 µg/mL (HCMV, strain AD-169; Human betaherpesvirus 5, AD169, MRC5, MRC-5 cells, AM 285 125 μg/ml): 0% | inhibition at 250 µg/mL (HCMV, strain AD-169; Human betaherpesvirus 5, AD169, MRC5, MRC-5 cells, AM 285 250 μg/ml): 0% | inhibition at 500 µg/mL (HCMV, strain AD-169; Human betaherpesvirus 5, AD169, MRC5, MRC-5 cells, AM 285 500 μg/ml): 54% | inhibition at 1000 µg/mL (HCMV, strain AD-169; Human betaherpesvirus 5, AD169, MRC5, MRC-5 cells, AM 285 1000 μg/ml): 75% | inhibition at 2000 µg/mL (HCMV, strain AD-169; Human betaherpesvirus 5, AD169, MRC5, MRC-5 cells, AM 285 2000 μg/ml): 100% | inhibition at 4000 µg/mL (HCMV, strain AD-169; Human betaherpesvirus 5, AD169, MRC5, MRC-5 cells, AM 285 4000 μg/ml): 100% | TI50 (CD50 ÷ ED50) (HCMV, strain AD-169; MRC-5 cells, Table 4): greater than 6.5 | TI50 (CD50 ÷ ED50) (HCMV, strain AD-169; MRC-5 cells, Table 4, listed as AM 285): > 6.5 | # Plaques (HCMV, strain AD-169; MRC-5 cells, AM 285 62.5 μg/ml, virus control 26.4 ± 5.2): 25 | # Plaques (HCMV, strain AD-169; MRC-5 cells, AM 285 125 μg/ml, virus control 26.4 ± 5.2): 26 | # Plaques (HCMV, strain AD-169; MRC-5 cells, AM 285 250 μg/ml, virus control 26.4 ± 5.2): 23 | # Plaques (HCMV, strain AD-169; MRC-5 cells, AM 285 500 μg/ml, virus control 26.4 ± 5.2): 12 | # Plaques (HCMV, strain AD-169; MRC-5 cells, AM 285 1000 μg/ml, virus control 26.4 ± 5.2): 6 | # Plaques (HCMV, strain AD-169; MRC-5 cells, AM 285 2000 μg/ml, virus control 26.4 ± 5.2): 0 | # Plaques (HCMV, strain AD-169; MRC-5 cells, AM 285 4000 μg/ml, virus control 26.4 ± 5.2): 0 | visible cytotoxicity (MRC-5 cells): no visible signs of cytotoxicity | CC50 ([3]; Table 4): > 4000 mg/L | CC50 ([3]; Table 6): > 10000 mg/L | CC50 ([3]; Table 7): > 10000 mg/L | CC50 ([3]; Table 9A): > 4000 mg/L | effect on CPE [4]: slight inhibitory effect | metabolised ([5]; a2058 cells): 13% | metabolised ([5]; du 145 cells): 76% | metabolised ([5]; me180 cells): 85% | metabolised ([5]; vero cells): 68% | CC50 (in vitro): > 10000 mg/L | antiviral activity [6]: did not display significant antiviral activity | tolerance in the diet (in vivo; 1% in mouse chow): well-tolerated | tolerance in toxicity control (in vivo; cream topical, sham-infected mice): well-tolerated and caused no adverse effects to the vaginal area | survival (in vivo; mouse, in vivo, 1 %, read-out: Survivors/Total (%)): 100% | Weight Change (in vivo; uninfected, AM-285 1% dietary, combined animal weights day 0 to day 15): 7.8 g | EC50 (HSV-2; Human alphaherpesvirus 2, Vero, read-out: ED50): 1690 µg/mL and 11 mM | EC (60 or 70) (HSV-2; Human alphaherpesvirus 2, Vero, read-out: concentration required to inhibit cytopathogenicity by 60% or 70%): 35000 µM | effect on cytopathic effect (HSV-2; contact-inhibited A459 cells): inhibited the cytopathic effect | effect on cytopathic effect (HSV-2; contact-inhibited BalbC/3T3 cells, FIG. 4A): inhibited the cytopathic effect | effect on cytopathic effect (HSV-2; serum-starved DU145 cells, FIG. 6A): inhibited the cytopathic effect | TI (HSV-2; serum-starved Vero cells): > 5.5 | effect on cytopathic effect (HSV-2; serum-starved Vero cells, FIG. 2A): inhibits the cytopathic effect
